Entries after “also recorded” stand apart in the source; their conditions may differ.
Assays:
NIH/3T3 cells [1] = assay: FACS-based flow cytometric analysis of probe uptake with/without 11 mM D-glucose; type: cell-based, murine; conditions: for reduction in cellular uptake due to 11 mM D-glucose: glucose-depleted condition normalized to 100
Procedure: FACS (Fluorescence Activated Cell Sorting)-based flow cytometric analysis was used to compare cellular uptake efficiency in NIH/3T3 cells among the glucose probe [2-(N-Cy3-piperazinoethyl)]-α-D-glucose (GB2-Cy3), synthesized in Example 2, the conventional fluorescent glucose probe 2-NBDG and the glucose probe Cy3-Glc-α, synthesized in Example 1.
NIH/3T3 cells were cultured on 10 cm cell culture dishes and transferred in a volume of 3×10^5 cells into each FACS tube (5 mL, BD). They were washed once with cold PBS before incubation at 37° C. for 30 min in 11 mM D-glucose-containing PBS or glucose-free PBS in the presence of the bioprobe [GB2-Cy3 (5 μM), 2-NBDG (5 μM or 50 μM) or Cy3-Glc-α (5 μM)]. Cells that were incubated without the bioprobes were used as a negative control. After being washed with cold PBS, 1×10^4 NIH/3T3 cells were analyzed on FACSCalibur™ (FACS-based flow cytometer). GBs-Cy3 was detected by FL2 channels. Raw data of 1×10^4 cells are shown in histograms, with the mean values thereof given in the graph of FIG. 21.

NIH/3T3 cells [2] = assay: Fluorescence imaging analysis of competitive GB2-Cy3 uptake; type: cell-based, murine; conditions: GB2-Cy3 10 μM; 0, 11 or 55 mM D-glucose
Procedure: Also, NIH/3T3, A549, C2C12 and 3T3/L1 cells, each having a population of 4×10^4 cells, were cultured on 35 mm cell culture dishes (BD Falcon™ Cell Culture Dish; BD Bioscience, CA, USA). Two days later, the cell culture medium was replaced with a glucose-depleted medium (DMEM, glucose free, GIBCO) supplemented with 0 mM, 11 mM or 55 mM D-glucose and 10 μM GB2-Cy3. After incubation at 37° C. for 30 min, the cells on the cover slips in the 35-mm cell culture dishes were washed twice with cold PBS and the cover slips were mounted on the caster of a fluorescence microscope (Olympus IX71). During observation under the fluorescence microscope, the cells were maintained at 37° C. in the chamber. Fluorescence images of 35-50 cells were taken by CCD camera (Axiocam MRm, Germany) and each cell was measured for fluorescence intensity using the image data analysis program Image-Pro® Plus (MediaCybernetics, USA). […] Image-Pro® Plus analyzed CCD camera images to produce the digitized mean of fluorescence intensity within the ROIs that the present inventors had established. The background intensity was subtracted from the detected fluorescence intensity to give the fluorescence intensity value that a cell contained. In this manner, the fluorescence intensity was digitized for performing various experiments. […]

A549 cells [3] = assay: Fluorescence imaging analysis of competitive probe uptake; type: cell-based, human
Procedure: Also, NIH/3T3, A549, C2C12 and 3T3/L1 cells, each having a population of 4×10^4 cells, were cultured on 35 mm cell culture dishes (BD Falcon™ Cell Culture Dish; BD Bioscience, CA, USA). Two days later, the cell culture medium was replaced with a glucose-depleted medium (DMEM, glucose free, GIBCO) supplemented with 0 mM, 11 mM or 55 mM D-glucose and 10 μM GB2-Cy3. After incubation at 37° C. for 30 min, the cells on the cover slips in the 35-mm cell culture dishes were washed twice with cold PBS and the cover slips were mounted on the caster of a fluorescence microscope (Olympus IX71). During observation under the fluorescence microscope, the cells were maintained at 37° C. in the chamber. Fluorescence images of 35-50 cells were taken by CCD camera (Axiocam MRm, Germany) and each cell was measured for fluorescence intensity using the image data analysis program Image-Pro® Plus (MediaCybernetics, USA). As ROIs (regions of interest), areas which encompassed cells within phase-contrast images were drawn using Image-Pro® Plus. Image-Pro® Plus analyzed CCD camera images to produce the digitized mean of fluorescence intensity within the ROIs that the present inventors had established. The background intensity was subtracted from the detected fluorescence intensity to give the fluorescence intensity value that a cell contained. In this manner, the fluorescence intensity was digitized for performing various experiments.
NIH/3T3 and A549 cells were cultured on microscope cover glasses in 35 mm cell culture dishes and subjected to fluorescence imaging analysis according to the protocol.

3T3/L1 pre-adipocytes = assay: GB2-Cy3 uptake during adipocyte differentiation, FACS-based flow cytometry; type: cell-based, mouse; conditions: day 0 to day 8 of differentiation
Procedure: (§1) For the differentiation of preadipocyte to mature adipocytes, 3T3/L1 fibroblast cells were cultured using the above mentioned culture protocol. […] When the cells start to generate lipid drops as an indication of the differentiation toward mature adipocytes, insulin was removed from the culture media. Mature adipocytes can be achieved by 8- to 12-day differentiation, and used for flow cytometric analysis and fluorescent bioimaging microscopy.
The changes in cellular glucose uptake from 3T3/L1 pre-adipocytes (day 0 of differentiation) toward more than 50% differentiation of mature adipocytes (day 8 of differentiation) were measured by FACS-based flow cytometric analysis using GB2-Cy3. The differentiation procedure was followed as described above. 1×10^4 cells were analyzed at FL2 channel of the flow cytometry. […] As mentioned above, the glucose analogue GB2-Cy3 of the present invention is useful for monitoring the differentiation of 3T3/L1 cells into mature adipocytes.

C2C12 muscle cells [4] = assay: Glucose competition and insulin response monitored by GB2-Cy3, flow cytometry; type: cell-based, mouse; conditions: D-glucose competition and insulin treatment
Procedure: (§3) For the differentiation to mature muscle cells, C2C12 mouse myoblast cells were maintained in DMEM supplemented with 10% FBS and 1% antibiotic-antimycotic solution. When the cells reached to 100% confluency, the medium was changed to DMEM containing 2% horse serum in every two days. Experiments for flow cytometric analysis and flow cytometric analysis were carried out with cells after 3 to 5-days differentiation.
The resulting cells were incubated with 5 μM GB2-Cy3 for 15 min in the absence/presence of 11 mM D-glucose. They were washed with cold PBS, collected and analyzed using FACSCalibur™. After detection of GB2-Cy3 by FL2 channels, mean fluorescent intensity values were calculated.

A549 cells [5] = assay: Screening of anticancer agents by Cy3-Glc-α uptake; type: cell-based, human
Procedure: (§2) 1×10^4 cells were cultured on a Lab-Tek glass chamber slide (Nalge Nunc International, Naperville, Ind., USA) in 35 mm cell culture dish. After 24 h, the cells were treated for each experimental purpose. Then, the medium was replaced with RPMI 1640 medium containing 12.5 μM of Cy3-Glc-α. The cells were exposed to Cy3-Glc-α for 40 min, then washed with PBS 3 times. Finally, the glass chamber slide was taken from culture dish and loaded on the fluorescence microscope (Axiovert 200, Carl Zeiss, Germany). Fluorescence images of 35-50 cells were taken by CCD camera (Axiocam MRm, Germany) and fluorescence intensity of each cell was measured by Axiovision (program for data analysis). An area as ROIs (regions of interest) which contains a cell in phase-contrast image was drawn using Axiovision. Axiovision analyzed CCD camera images and provided the digitized mean of fluorescence intensity in the ROIs that the present inventors had established. The present inventors subtracted the background intensity from the fluorescence intensity to get the fluorescence intensity value that a cell contained. With the method described above, the present inventors digitized fluorescence intensity and performed various experiments.
The application was performed under the postulation that the depression of perturbed cellular metabolism in cancer cells was caused by anticancer agents, which was closely related to the reduction of glucose uptake.
The present inventors intended to monitor this phenomenon by the fluorescent bioprobe according to the present invention, that is, Cy3-Glc-α. As a proof-of-principle experiment, after A549 cancer cells were treated with taxol (9.8 μM), an anticancer agent, and the uptake of Cy3-Glc-αwas measured at 3, 6, 12, and 24 h after the treatment.
(3) In addition, after the taxol concentration was changed in the range of 490 nM to 49 nM, the uptake of Cy3-Glc-α by A549 cells was measured after 8 hr and 12 hr, and after another anticancer agent, i.e., combretastatin, (2 μM) was used to treat A549 cells, the uptake of Cy3-Glc-α by A549 cells was measured after 8 hr and 12 hr.

A549 cells [6] = assay: Probe uptake by A549 cells, inverted fluorescent microscope (α/β anomers, alanine, 2-NBDG comparison); type: cell-based, human
Procedure: as §2
To confirm the above hypothesis, real-time uptake of Cy3-Glc-α was measured, and the results were compared to those of Cy3-Glc-β by live imaging of A549 cells by using inverted fluorescent microscope. […] This led the present inventors to the conclusion that the stereochemistry at the C-1 anomeric position definitely influences the efficiency of mimicking glucose, and this might be due to the binding orientation of D-glucose in GLUTs [P. W. Hruz, M. M. Mueckler, Mole. Memb. Biol. 2001, 18, 183-193].
The cellular uptake of 2-NBDG was not detected under identical experimental conditions used for Cy3-Glc-α. […] To achieve the fluorescence intensity with 2-NBDG to 80% that of Cy3-Glc-α, a 10 fold increase in 2-NBDG concentration and a 20 fold increase in the lens exposure time in D-glucose-depleted medium were needed.
In addition, the cellular uptake of 2-NBDG in normal media (containing 10 mM D-glucose) was extremely low (>60% uptake reduction in normal media) and was hardly detected using fluorescent based imaging methods [R. G. O'Neil, L. Wu, N. Mullani, Mol. Imaging Biol. 2005, 7, 388-392]. 2-NBDG was detectable only in glucose-depleted media, and this means a critical limitation of bioapplication of 2-NBDG in the biologically significant environments. In comparison with 2-NBDG, the reduction of Cy3-Glc-α uptake in glucose-containing media was only 5% compared to that in glucose-depleted media (FIG. 18). Therefore, it was confirmed that Cy3-Glc-α was capable of being applied to a bioassay system regardless of glucose starvation.

[7] = normal media containing 10 mM D-glucose; cited from earlier work
3T3/L1 adipocytes = assay: Cellular glucose uptake under insulin, AICAR, dexamethasone monitored by GB2-Cy3; type: cell-based, mouse; conditions: insulin 170 nM, AICAR 1 mM (1 hr) or dexamethasone 1 μM (24 hrs); GB2-Cy3 10 μM
Procedure: as §1
Also, C2C12 cells and 3T3/L1 cells, each having a population of 6×10^4 cells, were cultured and differentiated on respective microscope cover glasses [Marlenfeld GmbH&Co., KG (Germany)] in 35 mm cell culture dishes. After removal of the differentiation media, FBS-free DMEM media containing 5.5 mM glucose were added to maintained a serum-free condition for 4 hrs. […] In this regard, an FBS-free DMEM medium containing 5.5 mM glucose or a DMEM medium free of both FBS and glucose was used. Cells were incubated at 37° C. for 30 min after which the glass chamber slides were withdrawn from the culture dishes and loaded on a chamber. […] Fluorescence images were taken every seven seconds, digitized and saved on a computer until analysis.
3T3/L1 preadipocyte cells and C2C12 […] cells were cultured in 24-well plates. […] 2×10^5 (3T3/L1) or 1×10^5 (C2C12) cells were analyzed using FACSCalibur™ and a confocal laser scanning microscope.

C2C12 muscle cells [8] = assay: as above; type: cell-based, mouse; conditions: insulin 170 nM, AICAR 1 mM (1 hr) or dexamethasone 1 μM (24 hrs); GB2-Cy3 5 μM
Procedure: as §3
3T3/L1 preadipocyte cells and C2C12 fibroblast cells were cultured in 24-well plates. […] 2×10^5 (3T3/L1) or 1×10^5 (C2C12) cells were analyzed using FACSCalibur™ and a confocal laser scanning microscope.

In the case of `C[N+]1=C(/C=C/C=C2/N(CCCCC(=O)N3CCN(CCOC4OC(CO)C(O)C(O)C4O)CC3)c3ccccc3C2(C)C)C(C)(C)c2ccccc21` [GB2-Cy3, [2-(N-Cy3-piperazinoethyl)]-α-D-glucose], the “reduction in cellular uptake due to 11 mM D-glucose” value (NIH/3T3 cells [1]; probe 5 μM) is reported as “about 60%”, the “cellular uptake versus D-glucose concentration” value (NIH/3T3 cells [2]) is reported as “reduced in a D-glucose dose-dependent manner” and the “cellular uptake in A549 cells compared with NIH/3T3 cells” value (A549 cells [3]; GB2-Cy3 10 μM) is reported as “observed to increase in A549 lung carcinoma cells”. The “cellular uptake versus D-glucose concentration” value (A549 cells [3]; GB2-Cy3 10 μM, 0, 11 or 55 mM D-glucose) was “reduced in a D-glucose dose-dependent manner”, the “cellular uptake versus D-glucose concentration” value (A549 cells [3]; probe 12.5 μM) was “decreased in the cellular uptake of the glucose analogues in D-glucose dose-dependent manners” and the “change in the fluorescent intensity of ROIs when D-glucose changed from 10 mM to 55 mM” value (A549 cells [3]; probe 12.5 μM) was “approximately 27%”. For the same compound, the “fluorescent intensity (FL2) as differentiation progressed” value (3T3/L1 pre-adipocytes) was “increase in fluorescence intensity with the advance of differentiation; also recorded: the fluorescent intensity detected by FL2 channel was increased” and the “uptake route of GB2-Cy3” value (C2C12 muscle cells [4]) was “GLUT-specific uptake”.
For `COc1ccc(C[C@@H](O)c2cc(OC)c(OC)c(OC)c2)cc1O` [Combretastatin], the “uptake of Cy3-Glc-α by A549 cells” value (A549 cells [5]; agent 2 μM, 6 h) was 57.4% and the “uptake of Cy3-Glc-α by A549 cells” value (A549 cells [5]; agent 2 μM, 12 h) was 45.0%.
For `O=[N+]([O-])c1ccc(NC2C(O)OC(CO)C(O)C2O)c2nonc12` [2-NBDG, 2-[N-(7-nitrobenz-2-oxa-1,3-diazol-4-yl)amino]-2-deoxy-D-glucose], the “detection of cellular uptake under conditions identical to Cy3-Glc-α” value (A549 cells [6]; 12.5 μM, 500 ms lens exposure) was “not detected”, the “fluorescence detection at 125 μM” value (A549 cells [6]; 125 μM, 500 ms CCD lens exposure) was “little detected; also recorded: the fluorescence was not detected” and the “fluorescence intensity of 2-NBDG relative to that of Cy3-Glc-α” value (A549 cells [6]; 10 fold 2-NBDG concentration, 20 fold lens exposure time, D-glucose-depleted medium) was 80%. The “competition with D-glucose for cellular uptake” value (NIH/3T3 cells [1]; probe 5 μM, 11 mM D-glucose) was “did not compete with D-glucose for cellular uptake”, the “reduction in cellular uptake due to 11 mM D-glucose” value (NIH/3T3 cells [1]; probe 50 μM) was 30% and the “uptake reduction in normal media” value [7] was > 60%.
For “insulin: Insulin purchased from SIGMA; stimulates GLUT4 translocation and glucose uptake”, the “effect on cellular uptake of glucose monitored by GB2-Cy3” value (3T3/L1 adipocytes) was “enhanced cellular uptake of glucose” and the “effect on cellular uptake of glucose monitored by GB2-Cy3” value (C2C12 muscle cells [8]) was “enhanced cellular uptake of glucose”.
In the case of `CC(=O)O[C@H]1C(=O)[C@@]2(C)[C@H]([C@H](OC(=O)c3ccccc3)[C@]3(O)C[C@H](OC(=O)[C@H](O)[C@@H](NC(=O)c4ccccc4)c4ccccc4)C(C)=C1C3(C)C)[C@]1(OC(C)=O)CO[C@@H]1C[C@@H]2O` [Taxol], the “uptake of Cy3-Glc-α by A549 cells” value (A549 cells [5]; agent 49 nM, 6 h) is reported as 96.5%, the “uptake of Cy3-Glc-α by A549 cells” value (A549 cells [5]; agent 49 nM, 12 h) is reported as 86.9% and the “uptake of Cy3-Glc-α by A549 cells” value (A549 cells [5]; agent 490 nM, 6 h) is reported as 88.4%. For the same compound, the “uptake of Cy3-Glc-α by A549 cells” value (A549 cells [5]; agent 490 nM, 12 h) was 61.8%, the “uptake of Cy3-Glc-α by A549 cells” value (A549 cells [5]; agent 9.8 μM, 6 h) was 54.8% and the “uptake of Cy3-Glc-α by A549 cells” value (A549 cells [5]; agent 9.8 μM, 12 h) was 50.2%. The “cellular uptake of Cy3-Glc-α versus incubation time with agent” value (A549 cells [5]; taxol 9.8 μM, 3, 6, 12, 24 h) was “reduced as the incubation time increased”.
